Measured values taken from PMC6271893, “In Vitro Antioxidant and Cytotoxic Activity of Some Synthetic Riparin-Derived Compounds” (Molecules, 2014).
≈ marks a conversion by molar mass, not a printed value. Marks after values point to notes of the source that are not given here.

Experiments:
[1] = test system: HEP-2 (laryngeal carcinoma); test: Cytotoxicity against tumor cell lines (MTT); format: cell-based; conditions: Homo sapiens, 72 h, 95% confidence interval in brackets, read-out: IC50 values and confidence intervals, HEP-2
Protocol: (§1) Cells were maintained at 37 °C with 5% CO2 in RPMI 1640 (Himedia^TM, Mumbai, India) or DMEM medium (Gibco^TM, Grand Island, NY, USA) supplemented with 2 mM glutamine, 100 U/mL penicillin, 100 μg/mL streptomycin. The antiproliferative activities of riparins were evaluated in the following human cancer cells lineage: HL-60 (pro-myelocytic leukemia), NCIH-292 (lung carcinoma), and HEP-2 (laryngeal carcinoma) obtained from the Rio de Janeiro Cell Bank (RJ-Brazil). For all experiments, 100 µL of tumor cells were plated in 96-well plates (6 × 10^4 cells/cm^2 for adherent cells or 9 × 10^4 cells/cm^2 for leukemia). Tested compounds (0.1–25 μg/mL) dissolved in 1% DMSO (100 µL) were added to each well and incubated for 72 h. Control groups received the same amount of DMSO. After 69 h of treatment, 25 μL of MTT (5 mg/mL) were added. Three hours later, the MTT formazan product was dissolved in 100 μL of DMSO, and absorbance was measured at 595 nm using a multiplate reader (Thermo Plate®, TP Reader, São Paulo, SP, Brasil).
(§2) The obtained data were evaluated by one-way analysis of variance (ANOVA) followed by a Student Newman Keuls post hoc test. The data concerning release percentage of cytoplasmatic enzyme lactate dehydrogenase (LDH) were reported by mean ± standard deviation and evaluated by one-way analysis of variance (ANOVA) followed by a Tukey post hoc test. In all cases differences were considered significant if p < 0.05, the means and respective standard errors were analyzed in the Graph Pad Prism version 5.0 for Windows software (GraphPad Software Incorporated, San Diego, CA, USA).

[2] = test system: HL-60 (pro-myelocytic leukemia); test: Cytotoxicity against tumor cell lines (MTT); format: cell-based; conditions: Homo sapiens, 72 h, 95% confidence interval in brackets, read-out: IC50 values and confidence intervals, HL-60
Protocol: as §1, §2

[3] = test system: NCIH-292 (lung carcinoma); test: Cytotoxicity against tumor cell lines (MTT); format: cell-based; conditions: Homo sapiens, NCI-H292, 72 h, 95% confidence interval in brackets, read-out: IC50 values and confidence intervals, NCIH-292
Protocol: as §1, §2

[4] = Hydroxyl radical scavenging activity (2-deoxyribose degradation, Fenton reaction); conditions: for IC50 OH radical: hydroxyl radical content
Protocol: (§3) For the in vitro antioxidant tests the samples were emulsified in 0.05% Tween 80 dissolved in saline 0.9% (used as the vehicle) and tested at concentrations of 1, 5, 10, 25 and 100 µg/mL. The samples for the cytotoxicity tests were diluted in pure and sterile DMSO and tested at concentrations of 25 µg/mL.
The formation of OH radicals from Fenton reagents was quantified using the condensation product of the 2-deoxyribose oxidative degradation product, malonaldehyde, with 2-thiobarbituric acid (TBA). Briefly, typical reactions were started by the addition of Fe^2+ (FeSO4 6 mM final concentration) to solutions containing 5 mM 2-deoxyribose, 100 mM H2O2 and 20 mM phosphate buffer (pH 7.2). In order to determine the antioxidant activity of the riparins against the hydroxyl radical, individual tests were performed on each one of the six substances, in which different concentrations of the riparins were added to the system before Fe^2+ addition (Rip-A; Rip-B; Rip-C; Rip-D; Rip-E and Rip-F). Reactions were carried out for 15 min at room temperature and were quenched by the addition of phosphoric acid 4% (v/v), followed by TBA 1% (thiobarbituric acid, v/v in 50 μL NaOH). The solutions were boiled for 15 min to 95 °C and then cooled at room temperature. The absorbance was measured at 532 nm and the results were expressed as MDA equivalents formed by Fe^2+ and H2O2 [25].

[5] = test system: tumor cells lines (leukemia and lung and laryngeal carcinoma); test: Cytotoxicity on tumor cell lines, summary statements over the lines (MTT); format: cell-based; conditions: Homo sapiens; for IC50: leukemia and lung and laryngeal carcinoma, read-out: IC50 values on neoplastic cells (range over cell lines); for inhibition at 25 µg/mL: tumor cells lines, cytotoxicity samples tested at 25 µg/mL, read-out: cell growth inhibition rates
Protocol: as §3, §1

[6] = Scavenging activity of nitric oxide (nitrite production induced by SNP, Griess reaction); conditions: for IC50 Nitrite: nitrite formation
Protocol: as §3
Nitric oxide was generated from spontaneous decomposition of sodium nitroprusside in 20 mM phosphate buffer (pH 7.4). Once generated, NO interacts with oxygen to produce nitrite ions, which are measured by the Griess reaction. The reaction mixture (1 mL) containing 10 mM sodium nitroprusside (SNP) in phosphate buffer and the riparins at various concentrations of 1, 5, 10, 25 and 100 µg/mL were incubated at 37 °C for 1 h. A 0.5 mL aliquot was taken and homogenized with 0.5 mL Griess reagent. The absorbance of chromophore was measured at 540 nm. Percent inhibition of generated nitric oxide was measured by comparing the absorbance values of negative controls (only 10 mM sodium nitroprusside and vehicle) to assay preparations. Results were expressed as percentage of nitrite formed by SNP alone.

[7] = test system: murine peritoneal macrophages RAW 264.7; test: Cytotoxicity assay on RAW 264.7 (LDH release); format: cell-based; conditions: 25 µg/mL, RAW 264.7
Protocol: Murine peritoneal macrophages of the cell line RAW 264.7 were obtained from the American Type Culture Collection (ATCC, Rockville, MD, USA), and cultured at 37 °C with CO2 at 5% in DMEM-F12 supplemented with 10% fetal bovine serum (FBS; Hyclone^TM, Logan, UT, USA) and gentamicin (50 μg/mL). RAW 264.7 cells (5 × 10^5 cells/mL) were cultured and incubated for 24 h with the riparins A, B, C, D, E and F at the final concentration of 25 µg/mL […]. The cytotoxicity assay was performed by LDH assay. The release of LDH (cytoplasmic lactate dehydrogenase enzyme) was determined using 50 μL of culture supernatant with 100 μL of LDH substrate plus and 5 μL ferric alum (5 mg/mL), at 37 °C for 3 min. Then, 100 μL of the NAD solution and phenazine methosulphate were added to the mixture, maintaining the temperature at 37 °C for 5 min (Labrax Commercial Kit, Clontech, Palo Alto, CA, USA). LDH is an oxidoreductase which catalyzes the interconversion of lactate and pyruvate and, for being a stable cytosolic enzyme, after damage to cell membrane it is released in the cellular environment and because of this LDH is an indirect indicator of cytotoxicity. LDH concentration was determined by colorimetry at 492 nm. The specific release of LDH was calculated as percentage of the controls (not treated cells as negative control and cells treated with 1%Triton X-100 as positive control).
as §2

[8] = Antioxidant potential against the formation of TBARS (AAPH-induced lipid peroxidation of egg yolk homogenate); conditions: for IC50 TBARS: TBARS production
Protocol: as §3
The TBARS assay was employed to quantify lipid peroxidation and an adapted TBARS method was used to measure the antioxidant capacity of the riparins (Rip-A, -B, -C, -D, -E and -F) using egg yolk homogenate as lipid rich substrate. Egg yolk was homogenized (1% w/v) in 20 mM phosphate buffer (pH 7.4), 1 mL of homogenate was sonicated and then homogenized with 0.1 mL of the samples at concentrations of 1, 5, 10, 25 and 100 µg/mL. Lipid peroxidation was induced by the addition of 0.1 mL of 2,2'-azobis(2-methylpropionamidine) dihydrochloride solution (AAPH; 0.12 M). Control was evaluated with only the vehicle. Reactions were carried out for 15 minutes at 37 °C. After cooling, samples (0.5 mL) were centrifuged with 0.5 mL of trichloroacetic acid (15%) at 1,200 ×g for 10 min. An aliquot of 0.5 mL from supernatant was mixed with 0.5 mL TBA (0.67%) and heated at 95 °C for 30 min. After cooling, sample absorbance was measured using a spectrophotometer at 532 nm. The results were expressed as percentage of TBARS formed by AAPH alone (induced control).

Row | Structure (SMILES) | IC50 [1] [µg/mL] | IC50 [2] [µg/mL] | IC50 [3] [µg/mL] | 2-Deoxyribose degradation (%) ([4]; 1 μg/mL) | 2-Deoxyribose degradation (%) ([4]; 5 μg/mL) | 2-Deoxyribose degradation (%) ([4]; 10 μg/mL) | 2-Deoxyribose degradation (%) ([4]; 25 μg/mL) | 2-Deoxyribose degradation (%) ([4]; 100 μg/mL) | IC50 OH radical [4] [µg/mL] | IC50 [5] [µg/mL] | inhibition at 25 µg/mL [5] [%] | Nitrite Production (% induced by SNP) ([6]; 1 μg/mL) | Nitrite Production (% induced by SNP) ([6]; 5 μg/mL) | Nitrite Production (% induced by SNP) ([6]; 10 μg/mL) | Nitrite Production (% induced by SNP) ([6]; 25 μg/mL) | Nitrite Production (% induced by SNP) ([6]; 100 μg/mL) | IC50 Nitrite [6] [µg/mL] | melting point [°C] | LDH % Release [7] [%] | TBARS levels (% AAPH) ([8]; 1 μg/mL) | also measured
1 | COc1ccc(CCNC(=O)c2c(O)cccc2O)cc1OC [Rip-F, N-[2-(3,4-Dimethoxyphenyl)ethyl]-2,6-dihydroxybenzamide] | 7.8 (≈ 24.6 µM) | 11.4 (≈ 35.9 µM) | 10.3 (≈ 32.5 µM) | 83.3 ± 2.13 ^a % | 61.5 ± 0.98 ^a % | 57.6 ± 1.47 ^a % | 55.1 ± 1.78 ^a % | 50.9 ± 2.33 ^a % | 1.016 (≈ 3.2 µM) | 1.9 to 11.4 (≈ 5.99 to 35.9 µM) | > 70 | 74.9 ± 2.27 ^a % | 35.3 ± 0.96 ^a % | 21.5 ± 0.98 ^a % | 19.9 ± 0.71 ^a % | 17.3 ± 0.22 ^a % | 0.5817 (≈ 1.83 µM) | 167 | 91.01 | 38.8 ± 0.99 ^a % | LDH % Release ([7]; listed as riparin F): greater than 80%; TBARS levels (% AAPH) ([8]; 5 μg/mL): 35.9 ± 0.41 ^a %; TBARS levels (% AAPH) ([8]; 10 μg/mL): 35.2 ± 0.44 ^a %; TBARS levels (% AAPH) ([8]; 25 μg/mL): 34.6 ± 0.49 ^a %; TBARS levels (% AAPH) ([8]; 100 μg/mL): 30.3 ± 0.47 ^a %; IC50 TBARS [8]: 0.6231 µg/mL (≈ 1.96 µM)
2 | O=C(NCCc1ccccc1)c1ccccc1O [Rip-C, 2-Hydroxy-N-phenethylbenzamide] | 7.3 (≈ 30.3 µM) | 3.3 (≈ 13.7 µM) | > 25 | 95.5 ± 1.30 ^a % | 80.9 ± 1.29 ^a % | 58.7 ± 1.37 ^a % | 52.1 ± 0.13 ^a % | 46.7 ± 0.35 ^a % | 0.9516 (≈ 3.94 µM) | 1.9 to 11.4 (≈ 7.87 to 47.2 µM) | > 70 | 69.3 ± 1.07 ^a % | 34.9 ± 0.23 ^a % | 22.9 ± 1.31 ^a % | 19.8 ± 0.83 ^a % | 16.5 ± 1.44 ^a % | 0.7240 (≈ 3 µM) | 95 | 87.35 | 39.3 ± 0.60 ^a % | LDH % Release ([7]; listed as riparin C): greater than 80%; TBARS levels (% AAPH) ([8]; 5 μg/mL): 38.8 ± 1.07 ^a %; TBARS levels (% AAPH) ([8]; 10 μg/mL): 34.3 ± 0.92 ^a %; TBARS levels (% AAPH) ([8]; 25 μg/mL): 29.5 ± 1.91 ^a %; TBARS levels (% AAPH) ([8]; 100 μg/mL): 25.7 ± 2.62 ^a %; IC50 TBARS [8]: 0.8971 µg/mL (≈ 3.72 µM)
